Results published in US20120190004A1, “METHODS AND COMPOSITIONS FOR THE CRYOPRESERVATION OF DUCKWEED” (Biolex Therapeutics, Inc., priority 2009, published 2012).

How the values were obtained:
Assay in all cases: Cryopreservation success rate after dormancy induction in sugar-supplemented medium
[1] = system: L. sp. Branson; format: in vivo
Method: Lemna minor duckweed plants were cultured on Schenk and Hildebrandt media with 20 mg/ml sucrose at an aerial temperature of between 21° C. and 30° C. and light levels ranging from 200 μM·M^−2·sec^−1 to 450 μM·M^−2·sec^−1 for 1 day up to 1 year. Three frond colonies (each frond colony comprised one or more daughter fronds attached to the mother frond) were aseptically transferred into a 2.0-mL cryovial containing a 900 μL solution of Schenk and Hildebrandt media, […] step. The frond colonies were incubated in this sugar solution for 21-30 days. Each 24-hour photoperiod was comprised of fluctuations in temperature and light levels. Specifically, the daytime hours consisted of culturing the duckweed frond colony at an aerial temperature of 10° C. with a light level of about 25 μM·M^−2·sec^−1 to about 50 μM·M^−2·sec^−1 for a duration of 3 hours, followed by an aerial temperature of 15° C. at a light level of about 25 μM·M^−2·sec^−1 to about 75 μM·M^−2·sec^−1 for a duration of 6 hours, and an aerial temperature of 10° C. with a light level of about 25 μM^−2·sec^−1 to about 50 μM·M^−2·sec^−1 for a duration of 3 hours. During the nighttime hours of the 24-hour photoperiod, the duckweed frond colonies were cultured at an aerial temperature of 4° C. in the absence of light for a duration of 12 hours.
(§1) The duckweed frond colonies were dehydrated in a laminar flow hood in 900 μL of a cryoprotective solution, comprising 1.92 M DMSO, […], 3.26 M glycerol, and 0.4 M sucrose at pH 5.8. The cryovials were incubated in this solution at 4° C. for 30 minutes to 2 hours in the absence of light. Following the incubation, the cryoprotective solution was removed and replaced with 900 μL of fresh cryoprotective solution.
(§2) The duckweed frond colonies were frozen in a slow rate freezer according to the following freezing protocol. The cryovials containing the duckweed frond colonies were held at 4° C. and the temperature was lowered to −4° C. at 1° C. per minute, to −40° C. at 25° C. per minute, and then raised to −12° C. at 10° C. per minute. The temperature was again lowered to −40° C. at 1° C. per minute, to −90° C. at 10° C. per minute, and then lowered to −150° C. at 10° C. per minute. Once frozen, the vials containing the frond colonies were transferred to the vapor phase of liquid nitrogen for storage.
(§3) After up to 17 months in storage, the frozen duckweed frond colonies were thawed and recovered as follows. The vials containing the frozen duckweed frond colonies were transferred from the liquid nitrogen storage tank to a laminar flow hood and were thawed at room temperature for approximately ten minutes. The cryoprotective solution was removed and replaced with 900 μL of Schenk and Hildebrandt medium, supplemented with 1.2 M sucrose, followed by a ten minute incubation at room temperature. The 1.2 M sucrose was subsequently diluted by a series of five dilutions whereby 450 μL of the 1.2 M sucrose solution was removed and replaced with 450 μL of Schenk and Hildebrandt medium supplemented with 20 mg/ml sucrose. Following the serial dilutions, the frond colonies were transferred to a petri dish with Schenk and Hildebrandt medium, supplemented with 10 mg/ml sucrose and 1% (weight/volume) agar. The duckweed frond colonies were cultured at an aerial temperature of between 21° C. and 30° C. with light levels ranging from about 20 μM·M^−2·sec^−1 to about 100 μM·M^−2·sec^−1 for 7-14 days prior to calculating the success rate of the cryopreservation procedure.
The cryopreservation success rate was calculated by the total number of visible daughter fronds (or daughter fronds with viable tissue) to survive the freezing process and successfully reproduce new daughter fronds as a percentage of the total number of visible daughter fronds that were frozen. Viability of tissue or of daughter fronds was assessed by the presence of green tissue and the ability of these fronds or frond tissues to reproduce and generate new daughter fronds. […]

[2] = system: L. minor; format: in vivo, Lemna minor
Method: Lemna minor duckweed plants were cultured on Schenk and Hildebrandt media with 20 mg/ml sucrose at an aerial temperature of between 21° C. and 30° C. and light levels ranging from […] for 1 day up to 1 year. Three frond colonies (each frond colony comprised one or more daughter fronds attached to the mother frond) were aseptically transferred into a 2.0-mL cryovial containing a 900 μL solution of Schenk and Hildebrandt media, supplemented with 15 mg/ml of each D-trehalose dihydrate, sucrose, D-sorbitol, D-raffinose pentahydrate, D-glucose, and D-mannitol for the dormancy-induction step. The frond colonies were incubated in this sugar solution for 21-30 days. Each 24-hour photoperiod was comprised of fluctuations in temperature and light levels. Specifically, the daytime hours consisted of culturing the duckweed frond colony at an aerial temperature of 10° C. with a light level of about 25 μM·M^−2·sec^−1 to about 50 μM·M^−2·sec^−1 for a duration of 3 hours, followed by an aerial temperature of 15° C. at a light level of about 25 μM·M^−2·sec^−1 to about 75 μM·M^−2·sec^−1 for a duration of 6 hours, and an aerial temperature of 10° C. with a light level of about 25 μM^−2·sec^−1 to about 50 μM·M^−2·sec^−1 for a duration of 3 hours. During the nighttime hours of the 24-hour photoperiod, the duckweed frond colonies were cultured at an aerial temperature of 4° C. in the absence of light for a duration of 12 hours.
as §1, §2, §3
The cryopreservation success rate was calculated by the total number of visible daughter fronds (or daughter fronds with viable tissue) to survive the freezing process and successfully reproduce new daughter fronds as a percentage of the total number of visible daughter fronds that were frozen. […]

[3] = system: L. yungensis; format: in vivo, Lemna yungensis; conditions: single sugars 90 mg/ml unless the label says 20 mg/ml, six sugar combo 15 mg/ml each
[4] = second set of experiments, single sugars 90 mg/ml unless the label says 20 mg/ml, six sugar combo 15 mg/ml each

OC[C@H]1O[C@@](CO)(O[C@H]2O[C@H](CO)[C@@H](O)[C@H](O)[C@H]2O)[C@@H](O)[C@@H]1O [Sucrose, sucrose]
Cryopreservation success rate ([1]; first set of experiments, single sugars 90 mg/ml unless the label says 20 mg/ml, six sugar combo 15 mg/ml each, in Schenk and Hildebrandt media during dormancy induction): 100% (23/23)
Cryopreservation success rate ([1]; first set of experiments, single sugars 90 mg/ml unless the label says 20 mg/ml, six sugar combo 15 mg/ml each, in Schenk and Hildebrandt media during dormancy induction, listed as 20 mg/ml Sucrose): 96% (24/25)
Cryopreservation success rate [1, 4]: 87.5% (14/16)
Cryopreservation success rate ([1]; second set of experiments, single sugars 90 mg/ml unless the label says 20 mg/ml, six sugar combo 15 mg/ml each, listed as 20 mg/ml Sucrose): 88.2% (15/17)
Cryopreservation success rate ([1]; sugars at two concentrations: 90 mg/ml (1X) and 270 mg/ml (3X), listed as Sucrose 1X): 100% (19/19)
Cryopreservation success rate ([1]; sugars at two concentrations: 90 mg/ml (1X) and 270 mg/ml (3X), listed as Sucrose 3X): 0% (0/14)
Cryopreservation success rate ([1]; various concentrations of six sugar combination: total sugar 90 (1X), 216 (2.4X), 342 mg/ml (3.8X), or 20 mg/ml sucrose): 100% (24/24)
Cryopreservation success rate ([2]; dormancy induction 21-Day, fluctuating temperature and light): 93.75% (30/32)
Cryopreservation success rate ([2]; first set of experiments, single sugars 90 mg/ml unless the label says 20 mg/ml, six sugar combo 15 mg/ml each): 36.8% (7/19)
Cryopreservation success rate [2, 4]: 91.7% (11/12)
Cryopreservation success, in words ([2]; summary of Tables 6 and 7): lower cryopreservation success rates
Cryopreservation success rate ([3]; first set of experiments): 0%
Cryopreservation success rate ([3]; second set of experiments): 0%
